Test [1] has as its system Rat2 fibroblasts stably transformed with a plasmid containing a CMV promotor controlled v-Src/Hu c-Src fusion gene. Description: Anchorage Independent Src-transformed Fibroblast Proliferation Assay.
Another test addresses T1, c-Src (Homo sapiens, UniProt P12931).
T1 construct: purchased Upstate Biotechnologies
In words: c-Src Kinase Assay (ELISA format). The test is classed as biochemical. In outline: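 Partially purified Src preincubated with compound and biotinylated peptide 10 min at 30 °C in Tris-HCl pH 7.5 with MgCl2, EGTA, vanadate; ATP-started reaction ran 1 h at 30 °C, EDTA-stopped. Phosphopeptide captured on streptavidin, detected by HRP anti-phosphotyrosine; % inhibition = (1 − Abs/Abs(max)) × 100.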
A general note: ELISA stands for enzyme-linked immunosorbent assay.

[2] abbreviates: Rattus norvegicus, Rat2, 120 h, read-out: anch-indep src-tx fib IC50, suspension growth, MTS on Day 5.
The mark [3] stands for this setting: read-out: anch-indep src-tx fib IC50, suspension growth, MTS on Day 5.

Each structure is given as a SMILES string. “And” between values parts separate entries of the source, which are not always exact repeats. Equal entries are not always repeated. Where two headings read alike, the source gives them in different places.

T1 sequence (P12931 whole entry, species assumed): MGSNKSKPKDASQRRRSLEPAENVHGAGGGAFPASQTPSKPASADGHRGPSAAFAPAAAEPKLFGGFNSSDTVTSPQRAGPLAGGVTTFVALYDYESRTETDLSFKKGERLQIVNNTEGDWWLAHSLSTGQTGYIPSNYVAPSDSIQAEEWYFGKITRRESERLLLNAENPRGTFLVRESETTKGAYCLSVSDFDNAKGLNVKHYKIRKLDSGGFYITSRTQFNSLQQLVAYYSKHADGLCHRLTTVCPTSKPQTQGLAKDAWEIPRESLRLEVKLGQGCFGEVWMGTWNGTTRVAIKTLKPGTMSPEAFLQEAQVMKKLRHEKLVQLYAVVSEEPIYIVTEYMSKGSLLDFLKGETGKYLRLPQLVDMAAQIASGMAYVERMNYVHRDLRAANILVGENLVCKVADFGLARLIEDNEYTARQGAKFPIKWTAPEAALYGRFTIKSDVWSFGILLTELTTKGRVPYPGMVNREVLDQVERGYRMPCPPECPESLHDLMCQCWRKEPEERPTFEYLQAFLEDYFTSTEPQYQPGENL

For the compound `COc1cc(Nc2c(C#N)cnc3cc(-c4csc(CN5CCOCC5)c4)ccc23)c(Cl)cc1C` [Example 80, 4-{2-Chloro-5-methoxy-4-methylanilino)-7-[5-(4-morpholinylmethyl)-3-thienyl]-3-quinolinecarbonitrile], the IC50 worked out at 80 nM in test [1] (setting [2]) and 1.5 nM against c-Src.

`COc1cc(Nc2c(C#N)cnc3cc(-c4cc(CN5CCOCC5)c(CN5CCOCC5)s4)c(OC)cc23)c(Cl)cc1Cl` [Example 82, 7-[4,5-Bis(4-morpholinylmethyl)-2-thienyl]-4-(2,4-dichloro-5-methoxyanilino)-6-methoxy-3-quinolinecarbonitrile]: the figures for the IC50 (in test [1] (setting [2]); at c-Src) were 50 nM and 0.48 nM, respectively.

`COc1cc(Nc2c(C#N)cnc3cc(-c4ccc(C=O)cc4)ccc23)c(Cl)cc1Cl` [Example 83, 4-(2.4-Dichloro-5-methoxyanilino)-7-(4-formylphenyl)-3-quinolinecarbonitrile]: the IC50 in test [1] (setting [2]) was determined as 3900 nM; against c-Src it was 42 nM.

Consider `COc1cc(Nc2c(C#N)cnc3cc(-c4ccc(CNCCS(=O)(=O)c5ccccc5)cc4)ccc23)c(Cl)cc1Cl` [Example 85, 4-(2,4-Dichloro-5-methoxyanilino)-7-[4-({[2-(phenylsulfonyl)ethyl]amino}methyl)phenyl]-3-quinolinecarbonitrile], for which the IC50 was 10200 nM in test [1] (setting [2]); 36 nM and 41 nM on c-Src.

`COc1cc(Nc2c(C#N)cnc3cc(-c4ccc(CN(C)C)cc4)ccc23)c(Cl)cc1Cl` [Example 86, 4-(2,4-Dichloro-5-methoxyanilino)-7-{4-[(dimethylamino)methyl]phenyl}-3-quinolinecarbonitrile]: the IC50 in test [1] (setting [2]) is 210 nM; at c-Src, 1.1 nM.

For `CCN(CC)Cc1ccc(-c2ccc3c(Nc4cc(OC)c(Cl)cc4Cl)c(C#N)cnc3c2)cc1` [Example 87, 4-(2,4-Dichloro-5-methoxyanilino)-7-{4-[(diethylamino)methyl]phenyl}-3-quinolinecarbonitrile], the figures for the IC50 (in test [1] (setting [2]); on c-Src) were 220 nM and 0.46 nM, respectively.

Consider `COc1cc(Nc2c(C#N)cnc3cc(-c4ccc(CNCCS(C)(=O)=O)cc4)ccc23)c(Cl)cc1Cl` [Example 88, 4-(2,4-Dichloro-5-methoxyanilino)-7-[4-({[2-(methylsulfonyl)ethyl]amino}methyl)phenyl]-3-quinolinecarbonitrile], for which the IC50 in test [1] (setting [2]) worked out at 850 nM; against c-Src, 3 nM.

With `COc1ccc(C#Cc2ccc3c(Nc4cc(OC)c(Cl)cc4Cl)c(C#N)cnc3c2)cc1` [Example 90, 4-(2,4-Dichloro-5-methoxyanilino)-7-[2-(4-methoxyphenyl)ethynyl]-3-quinolinecarbonitrile], the IC50 in test [1] (setting [2]) was above 10000 nM. On c-Src (at 100 nM), this compound came in with an inhibition at 0.1 µM of 10%.

`COc1cc(Nc2c(C#N)cnc3cc(C#Cc4ccccn4)ccc23)c(Cl)cc1Cl` [Example 91, 4-(2,4-Dichloro-5-methoxyanilino)-7-[2-(2-pyridinyl)ethynyl]-3-quinolinecarbonitrile]: the IC50 was above 10000 nM in test [1] (setting [2]) and 3.1 nM at c-Src.

As for `COc1cc(Nc2c(C#N)cnc3cc(-n4cccc4CN(C)C)ccc23)c(Cl)cc1Cl` [Example 93], the IC50 is above 10000 nM in test [1] (setting [3]); 610 nM and 680 nM at c-Src.

As for `COc1cc(Nc2c(C#N)cnc3cc(/C=C/C(=O)O)ccc23)c(Cl)cc1Cl` [Example 99, (E)-3-[3-Cyano-4-(2,4-dichloro-5-methoxyanilino)-7-quinolinyl]-2-propenoic acid], the IC50 in test [1] (setting [2]) was above 10000 nM; at c-Src, 44 nM.

Consider `COc1cc(Nc2c(C#N)cnc3cc(-c4ccc(CN5CCC(CC(=O)O)CC5)cc4)ccc23)c(Cl)cc1Cl` [Example 100, (1-{4-[3-Cyano-4-(2,4-dichloro-5-methoxyanilino)-7-quinolinyl]benzyl}-4-piperidinyl)acetic acid], for which the IC50 worked out at 340 nM in test [1] (setting [2]), 400 nM in test [1] (setting [3]) and 0.57 nM on c-Src.

As for `COc1cc(Nc2c(C#N)cnc3cc(-c4ccc(CO)cc4)ccc23)c(Cl)cc1Cl` [Example 101, 4-(2,4-Dichloro-5-methoxyanilino)-7-[4-(hydroxymethyl)phenyl]-3-quinolinecarbonitrile], the IC50 in test [1] (setting [2]) was above 10000 nM; against c-Src, 15 nM.

For `COc1cc(Nc2c(C#N)cnc3cc(-c4ccc(CCl)cc4)ccc23)c(Cl)cc1Cl` [Example 102, 7-[4-(Chloromethyl)phenyl]-4-(2,4-dichloro-5-methoxyanilino)-3-quinolinecarbonitrile], the IC50 in test [1] (setting [2]) was 7500 nM; against c-Src it was 18 nM.

For the compound `COc1cc(Nc2c(C#N)cnc3cc(-c4ccc[nH]4)ccc23)c(Cl)cc1Cl` [Example 104, 4-(2,4-Dichloro-5-methoxyanilino)-7-(1H-pyrrol-2-yl)-3-quinolinecarbonitrile], the IC50 in test [1] (setting [2]) was found to be 560 nM; against c-Src, 14 nM.

Take `COc1cc(Nc2c(C#N)cnc3cc(-c4ccc(-c5nnn[nH]5)cc4)ccc23)c(Cl)cc1Cl` [Example 105]: the IC50 in test [1] (setting [2]) is above 10000 nM; in test [1] (setting [3]), 5900 nM; against c-Src, 10 nM.

For the compound `COc1cc(Nc2c(C#N)cnc3cc(-c4ncccc4CN4CCOCC4)ccc23)c(Cl)cc1Cl` [Example 111, 4-(2,4-Dichloro-5-methoxyanilino)-7-[3-(morpholin-4-ylmethyl)-pyridin-2-yl]-3-quinolinecarbonitrile], the IC50 in test [1] (setting [2]) was above 10000 nM; at c-Src it was 410 nM.

For `COc1cc(Nc2c(C#N)cnc3cc(-c4cccc(CN5CCN(C)CC5)c4)ccc23)c(Cl)cc1Cl` [Example 113, 4-(2,4-Dichloro-5-methoxyanilino)-7-{3-[(4-methyl-1-piperazinyl)methyl]phenyl}-3-quinolinecarbonitrile], the IC50 was 1400 nM in test [1] (setting [2]) and 10 nM against c-Src.

For `COc1cc(Nc2c(C#N)cnc3cc(-c4ccccc4C=O)ccc23)c(Cl)cc1Cl` [Example 114, 4-(2,4-Dichloro-5-methoxyanilino)-7-(2-formylphenyl)-3-quinolinecarbonitrile], the IC50 is above 10000 nM in test [1] (setting [2]) and 2200 nM on c-Src.

Regarding `COc1cc(Nc2c(C#N)cnc3cc(-c4ccccc4CN4CCOCC4)ccc23)c(Cl)cc1Cl` [Example 115, 4-(2,4-Dichloro-5-methoxyanilino)-7-[2-(4-morpholinylmethyl)phenyl]-3-quinolinecarbonitrile], the IC50 in test [1] (setting [2]) was above 10000 nM; against c-Src it was 5000 nM.

In the case of `COc1cc(Nc2c(C#N)cnc3cc(-c4cccc5ccccc45)ccc23)c(Cl)cc1Cl` [Example 116, 4-(2,4-Dichloro-5-methoxyanilino)-7-(1-naphthyl)-3-quinolinecarbonitrile], the IC50 in test [1] (setting [2]) is above 10000 nM. Besides, at c-Src (at 10 µM), the inhibition at 10 µM came to 25%.

`COc1cc(Nc2c(C#N)cnc3cc(-c4ccc5ccccc5c4)ccc23)c(Cl)cc1Cl` [Example 117, 4-(2,4-Dichloro-5-methoxyanilino)-7-(2-naphthyl)-3-quinolinecarbonitrile]: the half-maximal inhibitory concentration (IC50) in test [1] (setting [2]) was 6900 nM; on c-Src it was 210 nM and 160 nM and 120 nM.

On to `COc1cc(Nc2c(C#N)cnc3cc(-c4cccc(NC(C)=O)c4)ccc23)c(Cl)cc1Cl` [Example 118, N-{3-[3-Cyano-4-(2,4-dichloro-5-methoxyanilino)-7-quinolinyl]phenyl}acetamide], for which the figures for the IC50 (in test [1] (setting [2]); against c-Src) were 3000 nM and 160 nM, respectively.

The term IC50 denotes the concentration at which inhibition is half-maximal. As a reminder, the inhibition is how much of the control response was suppressed. Higher therefore signals a response far below the control.

The record behind these values is EP1268431B1 (Wyeth, priority 2000, dated 2001).
